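Growth conditions: 96-well plates. Treatment: test compound, 48 hours, 5 concentrations. Analysis: linear interpolation between bracketing concentrations; unreached endpoints set to highest concentration. GI50: concentration for 50% inhibition of growth.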 The source made the active and inactive calls. No stated cut-off is given here; in the data, active = GI50 up to about 1.1 µM and inactive = higher.
What was measured:
Assay in all cases: inhibition of tumour cell growth, NCI panel, 48 h
786-0 = tested on: 786-0
A498 = tested on: A498
A549 = tested on: A549
ACHN = tested on: ACHN
CAKI-1 = tested on: CAKI-1
CCRF-CEM = tested on: CCRF-CEM
COLO 205 = tested on: COLO 205
DLD-1 = tested on: DLD-1
DMS-114 = tested on: DMS-114
EKVX = tested on: EKVX
HCC 2998 = tested on: HCC 2998
HCT-116 = tested on: HCT-116
HL-60 = tested on: HL-60
HOP-18 = tested on: HOP-18
HOP-62 = tested on: HOP-62
HOP-92 = tested on: HOP-92
HT-29 = tested on: HT-29
IGROV-1 = tested on: IGROV-1
K562 = tested on: K562
KM-20L2 = tested on: KM-20L2
KM12 = tested on: KM12
LOX IMVI = tested on: LOX IMVI
LXFL 529 = tested on: LXFL 529
M14 = tested on: M14
M19-MEL = tested on: M19-MEL
MOLT-4 = tested on: MOLT-4
Malme-3M = tested on: Malme-3M
NCI-H226 = tested on: NCI-H226
NCI-H23 = tested on: NCI-H23
NCI-H522 = tested on: NCI-H522
OVCAR-3 = tested on: OVCAR-3
OVCAR-4 = tested on: OVCAR-4
OVCAR-8 = tested on: OVCAR-8
RXF 393 = tested on: RXF 393
SF-268 = tested on: SF-268
SF-295 = tested on: SF-295
SF-539 = tested on: SF-539
SK-MEL-28 = tested on: SK-MEL-28
SK-MEL-5 = tested on: SK-MEL-5
SK-OV-3 = tested on: SK-OV-3
SN12C = tested on: SN12C
SNB-19 = tested on: SNB-19
SNB-75 = tested on: SNB-75
SNB-78 = tested on: SNB-78
SR = tested on: SR
SW-620 = tested on: SW-620
TK-10 = tested on: TK-10
U-251 = tested on: U-251
UACC-257 = tested on: UACC-257
UACC-62 = tested on: UACC-62
UO-31 = tested on: UO-31
XF498 = tested on: XF498
DMS-273 = tested on: DMS-273
HCT-15 = tested on: HCT-15
NCI-H460 = tested on: NCI-H460
OVCAR-5 = tested on: OVCAR-5
RPMI-8226 = tested on: RPMI-8226
RXF 631 = tested on: RXF 631
SK-MEL-2 = tested on: SK-MEL-2

## COc1ccc(NC(=O)COC(=O)c2cccc3c(=O)c4ccccc4[nH]c23)cc1
786-0
  GI50: 19.1 µM (inactive)
A498
  GI50: 11.3 µM (inactive)
A549
  GI50: 20.3 µM (inactive)
ACHN
  GI50: 21.1 µM (inactive)
CAKI-1
  GI50: 19.5 µM (inactive)
CCRF-CEM
  GI50: 13.8 µM (inactive)
COLO 205
  GI50: 17.8 µM (inactive)
DLD-1
  GI50: 13.9 µM (inactive)
DMS-114
  GI50: 17.2 µM (inactive)
EKVX
  GI50: 18.4 µM (inactive)
HCC 2998
  GI50: 51.1 µM (inactive)
HCT-116
  GI50: 12.9 µM (inactive)
HL-60
  GI50: 13.1 µM (inactive)
HOP-18
  GI50: 27 µM (inactive)
HOP-62
  GI50: 23.8 µM (inactive)
HOP-92
  GI50: 25.1 µM (inactive)
HT-29
  GI50: 16 µM (inactive)
IGROV-1
  GI50: 27.4 µM (inactive)
K562
  GI50: 17.2 µM (inactive)
KM-20L2
  GI50: 21.5 µM (inactive)
KM12
  GI50: 16.9 µM (inactive)
LOX IMVI
  GI50: 15 µM (inactive)
LXFL 529
  GI50: 17.3 µM (inactive)
M14
  GI50: 29.6 µM (inactive)
M19-MEL
  GI50: 19.2 µM (inactive)
MOLT-4
  GI50: 14.2 µM (inactive)
Malme-3M
  GI50: 23.4 µM (inactive)
NCI-H226
  GI50: 23.1 µM (inactive)
NCI-H23
  GI50: 15.1 µM (inactive)
NCI-H522
  GI50: 17.9 µM (inactive)
OVCAR-3
  GI50: 22.1 µM (inactive)
OVCAR-4
  GI50: 17.9 µM (inactive)
OVCAR-8
  GI50: 22.4 µM (inactive)
RXF 393
  GI50: 15.3 µM (inactive)
SF-268
  GI50: 22.3 µM (inactive)
SF-295
  GI50: 19.5 µM (inactive)
SF-539
  GI50: 18.1 µM (inactive)
SK-MEL-28
  GI50: 30.8 µM (inactive)
SK-MEL-5
  GI50: 15.3 µM (inactive)
SK-OV-3
  GI50: 30.2 µM (inactive)
SN12C
  GI50: 27.5 µM (inactive)
SNB-19
  GI50: 30.1 µM (inactive)
SNB-75
  GI50: 21 µM (inactive)
SNB-78
  GI50: 22.1 µM (inactive)
SR
  GI50: 11.3 µM (inactive)
SW-620
  GI50: 22.2 µM (inactive)
TK-10
  GI50: 15.8 µM (inactive)
U-251
  GI50: 19.5 µM (inactive)
UACC-257
  GI50: 19.9 µM (inactive)
UACC-62
  GI50: 17.7 µM (inactive)
UO-31
  GI50: 14.8 µM (inactive)
XF498
  GI50: 19.9 µM (inactive)

## CC(=O)C1=C(C)Cn2c(=O)c3ccccc3c(=O)n2C1
786-0
  GI50: > 100 µM (inactive)
A498
  GI50: 82 µM (inactive)
A549
  GI50: > 100 µM (inactive)
ACHN
  GI50: > 100 µM (inactive)
CAKI-1
  GI50: > 100 µM (inactive)
CCRF-CEM
  GI50: > 100 µM (inactive)
COLO 205
  GI50: > 100 µM (inactive)
DLD-1
  GI50: > 100 µM (inactive)
DMS-114
  GI50: > 100 µM (inactive)
DMS-273
  GI50: > 100 µM (inactive)
EKVX
  GI50: > 100 µM (inactive)
HCC 2998
  GI50: > 100 µM (inactive)
HCT-116
  GI50: > 100 µM (inactive)
HCT-15
  GI50: > 100 µM
HL-60
  GI50: > 100 µM (inactive)
HOP-62
  GI50: > 100 µM (inactive)
HOP-92
  GI50: > 100 µM (inactive)
HT-29
  GI50: > 100 µM (inactive)
IGROV-1
  GI50: > 100 µM (inactive)
K562
  GI50: > 100 µM (inactive)
KM-20L2
  GI50: > 100 µM (inactive)
KM12
  GI50: > 100 µM (inactive)
LOX IMVI
  GI50: > 100 µM (inactive)
LXFL 529
  GI50: > 100 µM (inactive)
M14
  GI50: > 100 µM (inactive)
M19-MEL
  GI50: > 100 µM (inactive)
MOLT-4
  GI50: > 100 µM (inactive)
Malme-3M
  GI50: > 100 µM (inactive)
NCI-H226
  GI50: > 100 µM (inactive)
NCI-H23
  GI50: > 100 µM (inactive)
NCI-H460
  GI50: > 100 µM (inactive)
NCI-H522
  GI50: > 100 µM (inactive)
OVCAR-3
  GI50: > 100 µM (inactive)
OVCAR-4
  GI50: > 100 µM (inactive)
OVCAR-5
  GI50: > 100 µM (inactive)
OVCAR-8
  GI50: > 100 µM (inactive)
RPMI-8226
  GI50: > 100 µM (inactive)
RXF 393
  GI50: > 100 µM (inactive)
RXF 631
  GI50: > 100 µM (inactive)
SF-268
  GI50: > 100 µM (inactive)
SF-295
  GI50: > 100 µM (inactive)
SF-539
  GI50: > 100 µM (inactive)
SK-MEL-28
  GI50: > 100 µM (inactive)
SK-MEL-2
  GI50: > 100 µM (inactive)
SK-MEL-5
  GI50: > 100 µM (inactive)
SK-OV-3
  GI50: > 100 µM (inactive)
SN12C
  GI50: > 100 µM (inactive)
SNB-19
  GI50: > 100 µM (inactive)
SNB-75
  GI50: > 100 µM (inactive)
SR
  GI50: > 100 µM (inactive)
SW-620
  GI50: > 100 µM (inactive)
TK-10
  GI50: > 100 µM (inactive)
U-251
  GI50: > 100 µM (inactive)
UACC-257
  GI50: > 100 µM (inactive)
UO-31
  GI50: > 100 µM (inactive)
